Assay results: patent publication EP0610377B1, “TRI-SUBSTITUTED TETRAHYDROFURAN ANTIFUNGALS” (SCHERING CORPORATION, priority 1991, dated 1993)

How the values were obtained:
Assay type in all cases: in vivo
C. albicans C-43 = assay: Candida systemic model in CF1 mice infected IV with C. albicans C-43, oral treatment; settings: for %SURVIVAL: day 4 post-infection; for CFUs (GM): day 4, geometric mean of the logarithms of CFU remaining in the kidneys (dead mice counted as 10^9)
Method: The compounds of Examples 23-26 and itraconazole, fluconazole, and saperconazole were tested for in vivo oral antifungal activity in a Candida systemic model using CF1 male mice , average weight 20 g, Harlan Sprague Dawley, Inc., Indianapolis, Ind. infected by IV injection into the tail vein of C. albicans C-43 (5 million CFUs). […] Oral efficacy was measured after four (4) days by percent survival and by the number of organisms remaining in the kidneys i.e., the Colony Forming Units (CFUs). The mice were sacrificed and the kidneys of individual mice were homogenized in sterile saline, diluted and spread onto Mycosel agar. Colony counts were determined after 48 hours at 37°C. For calculation of geometric means, mice that died during the experiment were considered to have 10^9 CFUs/kidneys (based on numerous previous experiments).

Aspergillus flavus [1] = assay: Aspergillus flavus pulmonary infection model in compromised mice, oral treatment; settings: for %SURVIVAL / %ANIMALS NEG: 18 days post infection; for %SURVIVAL: compromised CF-1 mice; for %ANIMALS NEG: negative = <10 colonies
Description: The in vivo oral antifungal activity of the compounds of Example 23-26 were compared to those of itraconazole, fluconazole and saperconazole in an Aspergillus pulmonary infection model in mice. The procedure of David Loebenberg et al. entitled "Sch 42427, The Active Enantiomer of Antifungal agent Sch 39304: In Vitro and In Vivo Activity" Antimicrobial Agents and Chemotherapy (1992), 36 498-501 was used. The Aspergillus flavus pulmonary model was run in the following manner Male, CF-1 mice weighing 20 grams were compromised with cortisone acetate (100 mg/kg), administered subcutaneously, once daily for 3 days. In addition, to prevent bacterial disease, tetracycline HCL (300 mg/1) was added to the drinking water and given ad libitum. On day 2 of compromising, mice were infected in an inhalation chamber, first described by Piggot and Emmons in 1960 and modified by us. The chamber is a 1 liter pyrex, thick-walled flask with 8 tubular side-arms that extend into the flask. Each side-arm is a pyrex tube of 14 cm length, constricted to a 1 cm opening inside the flask. The bottom of the flask was covered with a malt extract agar medium on which a sporulating culture of A. flavus ATCC 24133 was grown for 13 days at room temperature. The top of the flask was closed with a #10 stopper through which passed a glass tube attached by rubber tubing to a 60 mL syringe. Mice were placed in each of the side arms and pushed to the bottoms so that their nares extended beyond the open end of the tube and over the agar. Cotton plugs were then inserted behind the mice to hold them in place. By pumping the 60 mL syringe twice, air was forced over the culture and produced a cloud of spores. Mice were exposed to the spore cloud for one minute. Within 15-30 minutes after exposure, a number of mice were sacrificed and lung tissue samples homogenized for culture to determine the number of inhaled conidia. Oral treatment began 24 h post-infection with doses of 5 to 250 mg of drug/kg in ethanol; vehicle (115 ml of Emulphor EL-719P, GAF, Wayne, NJ; and 5 ml of 20% w/v lactic acid per liter of water), 10:90 v/v, once daily for 4 days.
The procedure of Example 31 was used to compare the in vivo oral antifungal activity of (±)-5R/S-(cis)-4-[4-[4-[4-[[5-(2,4-difluorophenyl)-5-(1H-1,2,4-triazol-1-ylmethyl) tetrahydrofuran-3-yl]methoxy-phenyl-1-piperazinyl]phenyl]-2,4-dihydro-2[(R/S)-(1-methylpropyl)]-3H-1,2,4-triazol-3-one with (±)-2R/S-(cis)-1-[4-[[2-(2,4-difluorophenyl)-2-(1H-1,2,4-triazol-1-ylmethyl) tetrahydro-4-furanyl]methoxy]phenyl]-4-(1-methylethyl)piperazine of Example 68 of USP 5,039,676 in an Aspergillus pulmonary infection model described in Example 31. […]
The procedures of Examples 31 and 34 were used.

Aspergillus flavus [2] = assay: as above; settings: 33 mg/kg PO [3RX/DAY] for 4 days, 18 days post infection
C. albicans C-65 = assay: Candida systemic model in normal and compromised CF1 mice infected with C. albicans C-65, oral treatment; settings: normal and compromised mice; result in words (text refers to Tables II and V)
Method: The compounds of Examples 23-26 and itraconazole, fluconazole, and saperconazole were tested for in vivo oral antifungal activity in a Candida systemic model using CF1 male mice , average weight 20 g, Harlan Sprague Dawley, Inc., Indianapolis, Ind. infected by IV injection into the tail vein of C. albicans C-43 (5 million CFUs). The drugs were dissolved in polyethylene glycol-200 (PEG-200) and tested by orally administering 50, 25 and 10 mpk of each drug 4 hours post infection and once daily for 3 more days. Oral efficacy was measured after four (4) days by percent survival and by the number of organisms remaining in the kidneys i.e., the Colony Forming Units (CFUs). The mice were sacrificed and the kidneys of individual mice were homogenized in sterile saline, diluted and spread onto Mycosel agar. Colony counts were determined after 48 hours at 37°C. For calculation of geometric means, mice that died during the experiment were considered to have 10^9 CFUs/kidneys (based on numerous previous experiments).
The compounds of Examples 23-24 and itraconazole, fluconazole, were tested for in vivo oral antifungal anctivity in a Candida systemic model using normal and compromised CF1 mice infected with C. albicans C-65 (5 million CFUs). The procedure of Example 33 was followed. The drugs were dissolved in polyethylene glycol-200 ("PEG-200) at room temperature and tested by orally administering 100, 50, 25, 10 and 1 mpk of each drug. Oral efficacy was measured by percent survival and by the number of organisms remaining in the kidneys (CFUs) after four days. […] The pharmaceutical composition of the preferred compound of formula IIb of Eample 24 in hydroxypropyl beta cyclodextrin ("HPβCD") having 7.4 hydroxypropyl groups per HPβCD (obtained from Pharmatec, Inc., Alachua, FL 32615) was prepared by admixing the appropriate amount of the compound IIa with a 40% (w/v) solution of HPβCD (4 g of HPβCD per 10 mL of purified water). Gentle heating was used to form a clear solution. For the 10 mpk dose, 12 mg of Ha was added to 6 mL of a 40% w/v solution of HPβCD. For dilutions, sterile water was added to the solution with mixing. The pharmaceutical composition of itraconazole and the Pharmatec HPβCD described above was prepared as follows. Propylene glycol (10 mL) was admixed with 0.95 mL of concentrated HCI at 40°-45°C with stirring. Itraconazole (2.5 g) was added thereto and stirring was continued until homogeneous. The mixture so formed was cooled to 20° to 30°C and admixed with a solution of 60 g of HPβCD in 40 mL of purified water to form a clear solution. The pH was adjusted to a value of 1.9-2.1 with 10N NaOH and sufficient purified water added (with mixing) to a final volume of 100 mL. For dilutions, sterile water was added to the itraconazole - HPβCD.

Candida = Candida vaginal infection in a hamster model; settings: result in words
[3] = 33 mg/kg PO once a day for 4 days
[4] = 66 mg/kg PO once a day for 4 days
[5] = 100 mg/kg PO once a day for 4 days

Structure (SMILES) | %SURVIVAL (C. albicans C-43; 10 MPK PO in PEG-200, 1 a day x 4 days) [%] | CFUs (GM) (C. albicans C-43; 10 MPK PO in PEG-200) | %SURVIVAL (C. albicans C-43; 25 MPK PO in PEG-200, 1 a day x 4 days) [%] | CFUs (GM) (C. albicans C-43; 25 MPK PO in PEG-200) | %SURVIVAL (C. albicans C-43; 50 MPK PO in PEG-200, 1 a day x 4 days) [%] | CFUs (GM) (C. albicans C-43; 50 MPK PO in PEG-200) | %SURVIVAL (Aspergillus flavus [1]; [3]) [%] | %ANIMALS NEG (Aspergillus flavus [1]; [3]) [%] | %SURVIVAL (Aspergillus flavus [1]; [4]) [%] | %ANIMALS NEG (Aspergillus flavus [1]; [4]) [%] | %SURVIVAL (Aspergillus flavus [1]; [5]) [%] | %ANIMALS NEG (Aspergillus flavus [1]; [5]) [%] | %SURVIVAL (Aspergillus flavus [2]; compromised CF-1 mice) [%] | %ANIMALS NEG (Aspergillus flavus [2]; negative = <10 colonies) [%] | activity against systemic candidiasis compared with itraconazole and saperconazole (C. albicans C-65) | activity against a Candida vaginal infection compared with itraconazole and saperconazole (Candida) | oral activity against Aspergillus flavus pulmonary infections compared with itraconazole, fluconazole and saperconazole (Aspergillus flavus [1]; in vivo mouse model, PO, result in words)
CC[C@@H](C)n1ncn(-c2ccc(N3CCN(c4ccc(OC[C@H]5CO[C@](Cn6cncn6)(c6ccc(F)cc6F)C5)cc4)CC3)cc2)c1=O [Example 26, (+)-[(5S)-cis]-4-[4-[4-[4-[[5-(2,4-Difluorophenyl)-5-(1H-1,24-triazol-1-ylmethyl)tetrahydrofuran-3-yl]methoxy]phenyl]-1-piperazinyl]phenyl]-2,4-dihydro-2-[(1R)-(1-methylpropyl)]-3H-1,2,4-triazol-3-one] | 0 | 9.00 | 0 | 9.00 | 20 | 7.84 | 0 | 0 | 0 | 0 | 20 | 0 | 0 | 0 | – | – | –
CCC(CC)n1ncn(-c2ccc(N3CCN(c4ccc(OC[C@@H]5CO[C@@](Cn6cncn6)(c6ccc(F)cc6F)C5)cc4)CC3)cc2)c1=O [IIc] | – | – | – | – | – | – | – | – | – | – | – | – | – | – | more active | more active | more active orally
